Test results as given in ChEMBL document CHEMBL5214953, “Structure-activity-relationship study of semi-synthetically modified fusicoccins on their stabilization effect for 14-3-3-phospholigand interactions” (Bioorg Med Chem, 2022).
pIC50, pKd: −log10 of the molar value. The source made the active and inactive calls. The calls are words filed in the database; no cut-off is given here.

Assays:
[1] = Stabilization of mode-1 phosphopeptide FAM-KRSHpSVP binding to recombinant 14-3-3 zeta (unknown origin) measured by fluorescence polarization assay; design: species or system Homo sapiens
[2] = Stabilization of mode-3 phosphopeptide FAM-KRSHpSV binding to recombinant 14-3-3 zeta (unknown origin) measured by fluorescence polarization assay; design: species or system Homo sapiens
HL-60 [3] = experiment: Antiproliferative activity against human HL-60 cells at 5 to 80 uM measured after 48 hrs by WST assay; format: functional, cell-based; conditions: dose 5-80 µM
HEK293 = experiment: Antiproliferative activity against human HEK293 cells at 5 to 80 uM measured after 48 hrs by WST assay; format: functional, cell-based; conditions: dose 5-80 µM
HL-60 [4] = experiment: Antiproliferative activity against human HL-60 cells measured after 48 hrs by WST assay; format: functional, cell-based; conditions: HL-60, 48 h

| pKd [1] | pKd [2] | pIC50 (HL-60 [4]) | Structure (SMILES) | Activity (HL-60 [3]) | Activity (HEK293) |
| --- | --- | --- | --- | --- | --- |
| 6.15 | 6.42 | – | C=CC(C)(C)OC[C@H]1O[C@H](O[C@@H]2C3=C(C(C)C)C[C@H](OCc4ccc(C#N)cc4)[C@]3(C)/C=C3/[C@@H](COC)CC[C@H]3[C@@H](C)[C@H]2O)[C@H](O)[C@@H](O)[C@@H]1O | – | – |
| 6.80 | 6.92 | – | CCCNC[C@H]1O[C@H](O[C@@H]2C3=C(C(C)C)CC[C@]3(C)/C=C3/[C@@H](COC)CC[C@H]3[C@@H](C)[C@H]2O)[C@H](O)[C@@H](O)[C@@H]1O | Active | – |
| 6.17 | 6.22 | – | C=CC(C)(C)OC[C@H]1O[C@H](O[C@@H]2C3=C(C(C)C)C[C@H](OCc4ccc(C(=O)OC)cc4)[C@]3(C)/C=C3/[C@@H](COC)CC[C@H]3[C@@H](C)[C@H]2O)[C@H](O)[C@@H](O)[C@@H]1O | – | – |
| 6.19 | – | – | CC(C)C1=C2[C@@H](O[C@H]3O[C@@H]4COC(C)(C)O[C@H]4[C@H](O)[C@H]3O)[C@H](O)[C@H](C)[C@@H]3CC[C@H](COC(F)(F)F)/C3=C/[C@@]2(C)CC1 | – | – |
| 6.27 | 6.32 | – | C=CC(C)(C)OC[C@H]1O[C@H](O[C@@H]2C3=C(C(C)C)C[C@H](OCc4ccccc4C(=O)O)[C@]3(C)/C=C3/[C@@H](COC)CC[C@H]3[C@@H](C)[C@H]2O)[C@H](O)[C@@H](O)[C@@H]1O | – | – |
| 6.64 | 7.02 | – | COC[C@H]1CC[C@@H]2/C1=C\[C@@]1(C)CCC(C(C)C)=C1[C@@H](O[C@H]1O[C@@H]3COC(C)(C)O[C@H]3[C@H](O)[C@H]1O)[C@H](O)[C@@H]2C | – | Active |
| 6.96 | 7.39 | – | COC[C@H]1CC[C@@H]2/C1=C\[C@@]1(C)CCC([C@H](C)CNC(=O)C3CC3)=C1[C@@H](O[C@H]1O[C@@H]3COC(C)(C)O[C@H]3[C@H](O)[C@H]1O)[C@H](O)[C@@H]2C | – | Active |
| 6.96 | 7.36 | – | COC[C@H]1CC[C@@H]2/C1=C\[C@@]1(C)CCC([C@H](C)CNC(C)=O)=C1[C@@H](O[C@H]1O[C@@H]3COC(C)(C)O[C@H]3[C@H](O)[C@H]1O)[C@H](O)[C@@H]2C | – | Active |
| 7.22 | 7.15 | – | COC[C@H]1CC[C@@H]2/C1=C\[C@@]1(C)CCC(C(C)C)=C1[C@@H](O[C@H]1O[C@H](CN)[C@@H](O)[C@H](O)[C@H]1O)[C@H](O)[C@@H]2C | Active | – |
| 6.17 | – | – | CC(C)OC[C@H]1CC[C@@H]2/C1=C\[C@@]1(C)CCC(C(C)C)=C1[C@@H](O[C@H]1O[C@@H]3COC(C)(C)O[C@H]3[C@H](O)[C@H]1O)[C@H](O)[C@@H]2C | – | – |
| – | – | 5.00 | COC[C@H]1CC[C@@H]2/C1=C\[C@@]1(C)CCC(C(C)C)=C1[C@@H](O[C@H]1O[C@@H]3CO[C@@H](OCCCN)[C@@H]3[C@H]1O)[C@H](O)[C@@H]2C | – | – |
| 6.89 | 7.49 | – | COC[C@H]1CC[C@@H]2/C1=C\[C@@]1(C)CCC([C@H](C)CNC(=O)C3CCCCC3)=C1[C@@H](O[C@H]1O[C@@H]3COC(C)(C)O[C@H]3[C@H](O)[C@H]1O)[C@H](O)[C@@H]2C | – | Active |
| 6.33 | 6.41 | – | C=CC(C)(C)OC[C@H]1O[C@H](O[C@@H]2C3=C(C(C)C)C[C@H](OCc4ccc(C(=O)O)cc4)[C@]3(C)/C=C3/[C@@H](COC)CC[C@H]3[C@@H](C)[C@H]2O)[C@H](O)[C@@H](O)[C@@H]1O | – | – |
| 6.12 | – | – | CCOC[C@H]1CC[C@@H]2/C1=C\[C@@]1(C)CCC(C(C)C)=C1[C@@H](O[C@H]1O[C@@H]3COC(C)(C)O[C@H]3[C@H](O)[C@H]1O)[C@H](O)[C@@H]2C | – | – |
| 7.10 | 7.38 | – | COC[C@H]1CC[C@@H]2/C1=C\[C@@]1(C)CCC([C@H](C)CNC(=O)C(F)(F)F)=C1[C@@H](O[C@H]1O[C@@H]3COC(C)(C)O[C@H]3[C@H](O)[C@H]1O)[C@H](O)[C@@H]2C | – | Active |
| 6.51 | 6.60 | > 5.30 | COC[C@H]1CC[C@@H]2/C1=C\[C@@]1(C)CCC(C(C)C)=C1[C@@H](O[C@H]1O[C@H](CNCc3ccccc3)[C@@H](O)[C@H](O)[C@H]1O)[C@H](O)[C@@H]2C | – | – |
| 6.21 | 6.49 | – | C=CC(C)(C)OC[C@H]1O[C@H](O[C@@H]2C3=C(C(C)C)C[C@H](OCc4ccc(N=[N+]=[N-])cc4)[C@]3(C)/C=C3/[C@@H](COC)CC[C@H]3[C@@H](C)[C@H]2O)[C@H](O)[C@@H](O)[C@@H]1O | – | – |
| 6.17 | 6.32 | – | C=CC(C)(C)OC[C@H]1O[C@H](O[C@@H]2C3=C(C(C)C)C[C@H](OCc4ccccc4N=[N+]=[N-])[C@]3(C)/C=C3/[C@@H](COC)CC[C@H]3[C@@H](C)[C@H]2O)[C@H](O)[C@@H](O)[C@@H]1O | – | – |
| 6.18 | 6.28 | – | C=CC(C)(C)OC[C@H]1O[C@H](O[C@@H]2C3=C(C(C)C)C[C@H](OCc4ccccc4C(=O)OC)[C@]3(C)/C=C3/[C@@H](COC)CC[C@H]3[C@@H](C)[C@H]2O)[C@H](O)[C@@H](O)[C@@H]1O | – | – |

| Structure (SMILES) | pKd [1] | pKd [2] | pIC50 (HL-60 [4]) | Activity (HL-60 [3]) | Activity (HEK293) |
| --- | --- | --- | --- | --- | --- |
| C=CC(C)(C)OC[C@H]1O[C@H](O[C@@H]2C3=C(C(C)C)C[C@H](O)[C@]3(C)/C=C3/[C@@H](COC)CC[C@H]3[C@@H](C)[C@H]2O)[C@H](O)[C@@H](O)[C@@H]1O | 6.37 | 7.11 | – | – | – |
| C=CC(C)(C)OC[C@H]1O[C@H](O[C@@H]2C3=C([C@H](C)CNC(C)=O)C[C@H](O)[C@]3(C)/C=C3/[C@@H](COC)CC[C@H]3[C@@H](C)[C@H]2O)[C@H](O)[C@@H](O)[C@@H]1O | 6.77 | 7.42 | – | – | – |
